Laboratory results published in article PMC5654082 (Malaria Journal, 2017).
Structures can show the parent of a compound that is named as a salt.

Columns and labels:
[1] = parameters: method as in earlier work; conditions: unchanged PG; cited from earlier work
human OCT1 = target: T1, human OCT1 (Homo sapiens, UniProt O15245); assay: Inhibition of OCT1-mediated ASP uptake in transduced HEK293 cells; type: cell-based; conditions: 50 µM anti-malarial, 10 µM ASP, 10 min, 37 °C; relative to solvent control fixed at 100%
T1 construct: host or cells: HEK293, baculovirus transduction (CMV promoter), transient
T1 sequence (O15245 1-554): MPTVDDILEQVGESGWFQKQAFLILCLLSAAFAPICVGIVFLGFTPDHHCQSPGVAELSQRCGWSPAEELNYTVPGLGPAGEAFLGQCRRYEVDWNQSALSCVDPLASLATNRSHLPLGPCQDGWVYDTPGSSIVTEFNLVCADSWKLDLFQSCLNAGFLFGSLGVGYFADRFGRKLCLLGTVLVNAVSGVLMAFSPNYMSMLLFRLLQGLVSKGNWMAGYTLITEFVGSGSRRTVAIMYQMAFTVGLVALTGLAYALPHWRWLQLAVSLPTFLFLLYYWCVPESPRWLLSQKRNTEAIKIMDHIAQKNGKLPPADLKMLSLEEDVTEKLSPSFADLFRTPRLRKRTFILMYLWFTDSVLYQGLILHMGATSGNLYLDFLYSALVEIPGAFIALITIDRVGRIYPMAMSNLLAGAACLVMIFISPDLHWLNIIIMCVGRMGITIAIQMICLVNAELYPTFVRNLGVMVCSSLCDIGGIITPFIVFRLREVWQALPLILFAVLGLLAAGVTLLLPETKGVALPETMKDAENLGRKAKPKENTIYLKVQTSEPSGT
Protocol: (§1) HEK293 cells were modified to transiently express (a combination of) human OCT1, OCT2, MATE1, MATE2-K, or eYFP. Briefly, cDNA of the respective genes was cloned downstream of a CMV promoter into a baculovirus, of which passage three was used to transduce HEK293 cells. These cells were seeded in poly-D-lysine coated 24- or 96-wells plates and grown in a 37 °C incubator at 5% CO2. Growth was initiated at ~ 25% confluency using 375 or 125 μL cell and complete medium (DMEM + GlutaMAX™-I supplemented with 10% fetal bovine serum) suspension per well, respectively. After 24 h, cells were transduced with 30 µL virus (10 µL virus + 20 µL complete medium in case of 96-wells plates) or 2 × 15 µL virus for cells that required simultaneous expression of two transporters. Finally, 195 µL sodium butyrate (45 µL for 96-wells plates) was added to a final concentration of 2 mM to enhance protein expression.
AMO (10 mM), ASP (1 mM), CQ (10 mM), PQ (10 mM) and PG (10 mM) were dissolved in MilliQ water. ART (10 mM), ATO (10 mM), DHA (10 mM), LUM (10 mM), MQ (10 mM), NMQ (20 mM), PYR (10 mM), QN (10 mM) were dissolved in DMSO. All compound stocks were stored at − 20 °C. Inhibition of OCT1- or OCT2-mediated ASP uptake by anti-malarials was performed in poly-D-lysine coated 96-wells plates 2 or 3 days following HEK293 cell transduction. In short, cells were washed with 125 µL 37 °C HBSS containing 10 mM HEPES, pH 7.4. Then, a 50 µL mixture of ASP (10 µM) and anti-malarial compound (25, 50 or 100 µM) in HBSS buffer (pH 7.4) was added to each well and incubated for 10 min at 37 °C. ASP transport was stopped by washing with 125 µL ice-cold HBSS-HEPES buffer supplemented with 0.5% BSA. Following a second wash with 125 µL ice-cold HBSS-HEPES buffer, cells were lysed with 125 µL 1 M NaOH and ASP was excited at a wavelength of 485 nm and fluorescence was detected at an emission wavelength of 535 nm using the Victor X3 multimode plate reader.
For each compound, a range of seven concentrations was used to determine the concentration at which ASP uptake was inhibited half maximally (IC50). At least three independent experiments (4 for QN) were performed for each drug in triplicate as described above. Inhibition curves were plotted by nonlinear regression analyses of the data using GraphPad Prism version 5.03. […] To generate the final dose–response inhibition curve per anti-malarial, percentage of uptake was averaged for each drug concentration per experiment and the resulting mean ± SEM corresponding to three or four independent experiments were plotted.

MATE2-K = MATE2-K (Homo sapiens, UniProt Q86VL8); assay: Export assay in HEK293 cells co-transduced with OCT1 and MATE2-K; type: cell-based; parameters: host or cells: HEK293, baculovirus transduction (CMV promoter), transient; co-transduced with human OCT1 in the export assay
MATE2-K, sequence (Q86VL8 1-566 isoform Q86VL8-3): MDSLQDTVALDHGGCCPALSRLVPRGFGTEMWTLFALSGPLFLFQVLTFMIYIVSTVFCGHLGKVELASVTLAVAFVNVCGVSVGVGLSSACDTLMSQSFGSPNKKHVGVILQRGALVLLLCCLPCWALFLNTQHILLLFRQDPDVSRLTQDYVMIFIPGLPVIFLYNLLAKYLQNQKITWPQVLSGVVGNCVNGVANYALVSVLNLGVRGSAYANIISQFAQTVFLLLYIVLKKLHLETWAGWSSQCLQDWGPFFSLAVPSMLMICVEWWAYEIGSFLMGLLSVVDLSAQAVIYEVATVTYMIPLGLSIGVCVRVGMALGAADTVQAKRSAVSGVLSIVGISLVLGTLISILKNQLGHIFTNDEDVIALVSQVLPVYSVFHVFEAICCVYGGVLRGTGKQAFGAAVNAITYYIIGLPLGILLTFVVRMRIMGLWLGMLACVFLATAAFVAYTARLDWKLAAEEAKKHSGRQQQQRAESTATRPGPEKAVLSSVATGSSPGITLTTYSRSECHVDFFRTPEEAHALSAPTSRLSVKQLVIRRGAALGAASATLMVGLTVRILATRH
Protocol: as §1
Import and export of PG and cycloguanil (CG) was assessed by single and double transduced HEK293 cells. In short, HEK293 cells seeded in 24-wells plates as described, were transduced separately with eYFP, OCT1, OCT2, MATE1 or MATE2-K, or with combinations of these viruses. Following the same procedure as for the cellular import assay described above, the import of 100 µM PG and CG was measured after 5 min incubation and data was plotted as mean pmol/mg/min ± SEM. For export (following OCT1 uptake) of 1 µM PG after 1 min of transport at pH 7.4, percentage of remaining cellular PG (compared to background) was plotted as mean ± SEM in GraphPad version 5.03. Significant reduction in uptake (i.e. export by MATEs) was determined using ln transformation and a one-way repeated measures ANOVA with Dunnet’s post test.
Anti-malarial concentration in the cell lysates was quantified using an LC–MS/MS system consisting of a UPLC, a binary solvent manager, a vacuum degasser and an autosampler, coupled to a Xevo TQ-S micro triple quadrupole mass spectrometer. Liquid chromatographic separation of the samples (stored at 10 °C; injection volume of 10 µL) was performed at 40 °C using a HSS T3 analytical column (1.8 μm; 100 × 2.1 mm) coupled to a VanGuard HSS T3 pre-column (1.8 µm; 5 × 2.1 mm). […] Positive ion mode was used with selected reaction monitoring (SRM) for the quantitative analysis of AMO, ART, ATO, CQ, CG, DHA, LUM, MQ, PQ, PG, and QN. The peak area of the most abundant product ion was used for quantification.

SMILES: [H]/N=C(\N/C(=N/[H])Nc1ccc(Cl)cc1)NC(C)C [Proguanil, proguanil hydrochloride]
- Excretion into the urine [1]: < 40%
- Relative ASP uptake (OCT1-mediated) (human OCT1): 60 ± 7%
- Intracellular concentration, percentage of its initial value (MATE2-K; MATE2-K co-transduced with OCT1): 56%
- Relative decrease in uptake by MATE2-K (MATE2-K; OCT1/MATE2-K versus eYFP/OCT1 cells, 1 µM, 1 min): 44%
- Uptake, percentage of eYFP control cells (MATE2-K; cells expressing OCT1 and MATE2-K, 1 µM, 1 min, pH 7.4): 470 ± 80%
- Fraction exported by MATE2-K (MATE2-K; compared to eYFP/OCT1 transduced cells, 1 µM, 1 min): approximately 50%
